What all share (assay type): binding
Assay [1] has as its target T1, DAPK catalytic domain (DAPKwt, residues 1–285) (Homo sapiens, UniProt P53355).
T1 construct: encoding the DAPK catalytic domain (DAPKwt, open reading frame residues 1–285); Strep-tag (pASK-IBA3 vector; purified on streptactin resin) (C); made in house; host or cells: Escherichia coli DH5α
Kind of assay: Fluorescence polarization titration of the fluorescent probe with DAPKwt. How it is done: (§1) Fluorescence polarization assays were performed using a Victor 3 apparatus (Perkin-Elmer Waltham, MA). The Lissamine Rhodamine B peptides based library (UMR 7200 CNRS, Strasbourg, France, Patent WO/2006/003330 [14]) was diluted in the assay buffer (50 mM HEPES, 150 mM KCl, 1 mM MgCl2, pH 7.5) to a working concentration of 0.2 µM. 15 µl of these dilutions were transferred to each well of the assay plate (Corning Costar 96-well black polystyrene plates, Model 3686, Corning, Acton, MA). All pipetting in HTS was performed on a Biomek® 2000 (Beckman Coulter, Fullerton, CA). Fluorescent polarization degrees (mFP) were measured at an excitation and emission wavelength of 530 and 610 nm, respectively. 15 µl of the assay buffer with DAPK, at a concentration of 4 µM, were added to each well. For each plate, background correction was performed with blank control wells containing no compounds.
(§2) All titration measurements were performed on a FlexStation 3 (Molecular Devices Union City, CA). The other experimental conditions were described in section “HTS of fluorescent peptides based library”. A twofold dilution cascade of the protein between 200 µM and 0.8 µM was prepared and 10 µl of these solutions were dispatched in 96-well assay plates. 10 µl of the probe solution (0.2 µM of CHPO 187-3-H11-para in assay buffer) were added to the wells and fluorescent polarization was recorded as specified before. Subsequently, 1 µl of concentrated ATP, ADP or substrate peptide (Tocris Bristol, UK) in assay buffer with 0.1 µM of the fluorescent probe was added to the wells, in order to subsequently obtain the following final concentrations of ATP, ADP or substrate peptide: 0.4, 0.8, 1.6, 3.2, 6.3, 12.5, 25, 50, and 1000 µM (the highest concentration was not performed for the peptide).
(§3) Titrations followed the same protocol as described under “ATP, ADP and substrate peptide titrations”, but under buffer conditions analogous to the ones listed under “nano-ESI-MS for the study of non-covalent complexes”. For investigations of the monomeric and the dimeric forms, NH4Ac concentrations were kept constant at 250 mM and 5 mM, respectively. To induce gradual monomerization of DAPK catalytic core, the NH4Ac concentration was stepwise augmented (5, 10, 25, 50, 100 and 250 mM) by the addition of a concentrated NH4Ac stock solution (1 M).
Background: In fluorescence polarisation assays a small probe gives low polarisation when free and higher when bound to something large.

In assay [2] the target is T2, mutant protein DAPKdel (ΔS52–S57) (Homo sapiens, UniProt P53355, DEL52-57).
T2 construct: encoding the DAPK catalytic domain (DAPKwt, open reading frame residues 1–285) or the mutant protein DAPKdel (ΔS52–S57); Strep-tag (pASK-IBA3 vector; purified on streptactin resin) (C); made in house; host or cells: Escherichia coli DH5α
Description: Fluorescence polarization titration of the fluorescent probe with DAPKdel. How it is done: as §1, §2, §3

The target of assay [3] is T3, DAPK catalytic domain (DAPKwt) (Homo sapiens, UniProt P53355).
T3 construct: encoding the DAPK catalytic domain (DAPKwt, open reading frame residues 1–285); Strep-tag (pASK-IBA3 vector; purified on streptactin resin) (C); made in house; host or cells: Escherichia coli DH5α
Description: Fluorescence polarization titration of fluorophore labeled ATP with DAPKwt. Conditions: pH 8.8, labeled ATP 0.1 µM. The method, then: as §3
To determine the Kd values of γ-[6-Aminohexyl]-ATP-Atto495 (Jena Bioscience, Jena, Germany) its concentration was set to 0.1 µM, while the rest of the conditions were kept identical to the ones described above. Fluorescence polarization was recorded at an excitation and emission wavelength of 493 nm and 520 nm respectively.

From paper PMC2994711, “Homodimerization of the Death-Associated Protein Kinase Catalytic Domain: Development of a New Small Molecule Fluorescent Reporter” (PLoS ONE, 2010) come the findings set out here.

Like-named read-outs stand apart in the source and are kept apart here.

The term Kd denotes the free concentration of one partner at which half of the binding sites on the other are occupied at equilibrium, for simple one-to-one binding.

T2 sequence (P53355 with tags, fused parts or gaps DEL52-57): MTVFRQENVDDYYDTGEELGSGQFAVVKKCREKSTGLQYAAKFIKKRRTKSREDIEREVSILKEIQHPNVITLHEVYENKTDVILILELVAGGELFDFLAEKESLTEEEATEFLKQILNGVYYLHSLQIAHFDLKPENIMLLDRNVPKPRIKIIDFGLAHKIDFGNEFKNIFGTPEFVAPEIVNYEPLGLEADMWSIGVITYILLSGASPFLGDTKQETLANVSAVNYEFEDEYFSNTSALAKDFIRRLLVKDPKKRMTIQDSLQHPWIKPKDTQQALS
T1 sequence (P53355 1-285): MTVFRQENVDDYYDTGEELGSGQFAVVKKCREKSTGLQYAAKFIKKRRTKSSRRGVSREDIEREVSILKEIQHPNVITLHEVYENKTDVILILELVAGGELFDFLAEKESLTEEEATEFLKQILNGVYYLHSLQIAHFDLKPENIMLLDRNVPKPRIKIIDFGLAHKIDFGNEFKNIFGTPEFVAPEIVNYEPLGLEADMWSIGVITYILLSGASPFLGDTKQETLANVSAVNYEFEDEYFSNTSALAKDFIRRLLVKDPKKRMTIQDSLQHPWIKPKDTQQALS
T3 sequence (P53355 1-285): as above

In the case of `CCN(CC)c1ccc2c(-c3ccc(S(=O)(=O)NCCC(=O)N[C@@H](CCCNC(=N)N)C(=O)N[C@@H](Cc4ccc5ccccc5c4)C(=O)N[C@@H](CCCN)C(N)=O)cc3S(=O)(=O)[O-])c3ccc(=[N+](CC)CC)cc-3oc2c1` [CHPO 187-3-H11-para], the Kd in assay [1] (5 mM NH4Ac, pH 8.8, conditions favoring the dimer, probe 0.1 µM) was 16.5 ± 1.2 µM; in assay [1] (50 mM HEPES, 150 mM KCl, 1 mM MgCl2, pH 7.5, absence of ATP or ADP), 30.9 ± 2.8 µM; in assay [1] (250 mM NH4Ac, pH 8.8, conditions favoring the monomer, probe 0.1 µM) it was 1.5 ± 0.2 µM; in assay [1] (HEPES buffer pH 7.5, ATP or ADP to DAPK ratios higher than two (maximal effect)), 6.4 ± 0.54 µM; in assay [2] (5 mM NH4Ac, pH 8.8) it was 3.4 µM; in assay [2] (250 mM NH4Ac, pH 8.8), 5.5 µM. The Kd in assay [2] (HEPES buffer pH 7.5, absence of ATP or ADP) was 20 µM; in assay [2] (HEPES buffer pH 7.5, presence of ADP, ratio to DAPKdel higher than two), 33 µM; in assay [2] (HEPES buffer pH 7.5, presence of ATP, ratio to DAPKdel higher than two), 28 µM.

Regarding γ-[6-Aminohexyl]-ATP-Atto495, the Kd in assay [3] (5 mM NH4Ac, read-out: Kd of the labeled ATP for the DAPKwt dimer) amounted to 3.98 ± 0.22 µM; in assay [3] (250 mM NH4Ac, read-out: Kd of the labeled ATP for the DAPKwt monomer), 0.29 ± 0.011 µM.
